Data published in ChEMBL document CHEMBL5729195, “Heterocyclic compounds useful as aurora a selective inhibitors” (2022).

Target: T1, Aurora kinase A (Homo sapiens, UniProt O14965)
T1 sequence (O14965 whole entry): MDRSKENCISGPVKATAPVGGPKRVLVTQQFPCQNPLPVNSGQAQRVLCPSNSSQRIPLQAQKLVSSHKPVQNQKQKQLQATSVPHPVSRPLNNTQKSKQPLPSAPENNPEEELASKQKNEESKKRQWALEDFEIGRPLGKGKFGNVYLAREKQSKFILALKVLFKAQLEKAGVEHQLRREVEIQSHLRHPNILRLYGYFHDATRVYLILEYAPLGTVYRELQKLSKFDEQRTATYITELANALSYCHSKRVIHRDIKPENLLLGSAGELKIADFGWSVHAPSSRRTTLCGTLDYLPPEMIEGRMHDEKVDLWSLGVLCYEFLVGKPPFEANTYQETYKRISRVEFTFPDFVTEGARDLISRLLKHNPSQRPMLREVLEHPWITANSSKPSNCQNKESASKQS
Experiment: The testing compound was diluted up to 100× final concentration in a 384-well plate. Transfer 250 nL of the compound dilution to a 384-well assay plate using Echo 550.

- IC50: 1.1 nM
SMILES: Cc1cc(Nc2cc(F)cc(C[C@@]3(C(=O)O)CCN(Cc4cccc(Cl)c4F)[C@H](C)C3)n2)n[nH]1
